Results: PMC4129108, “The natural triterpene 3β,6β,16β-trihydroxy-lup-20(29)-ene obtained from the flowers of Combretum leprosum induces apoptosis in MCF-7 breast cancer cells” (BMC Complementary and Alternative Medicine, 2014)
Values after ≈ are worked out from the molar mass of the structure shown.

How the values were obtained:
[1] = test system: S. cerevisiae EG133 (sod1Δsod2Δ); assay: Yeast survival assay, EG133 (sod1Δsod2Δ); assay type: cell-based, Saccharomyces cerevisiae; conditions: positive control H2O2 5 mM, 1 h in PBS
Description: (§1) Media, solutions and buffers were prepared according to Burke et al.. YPD medium (0.5% yeast extract, 2% peptone, 2% glucose) was used for routine growth. Synthetic medium SC (0.67% yeast nitrogen base, 0.1% ammonium sulfate, 2% glucose) supplemented with the appropriate amino acids and bases ([…]) was used for the detection of mutations.
(§2) Stationary phase (STAT) cultures were obtained by inoculation of a single colony into liquid YPD. We chose to work in the stationary phase of growth because this resembles most cells of multicellular organisms in important aspects: (i) most energy comes from mitochondrial respiration; (ii) the cells have left the active cell cycle and have entered the Go phase; and (iii) damage accumulates over time.
(§3) STAT cells (1 × 10^8 cells/mL) were exposed to TTHL (10–500 μg/mL) and incubated under growth conditions for 1 h in PBS at 30°C. Cells were then washed and treated with H2O2 (5 mM) in PBS for another hour. Suitable aliquots were plated in triplicate on solid YPD (2–3 days, 30°C) and colony-forming units were counted. Sensitivity was expressed as a percentage of survival in relation to the negative control (solvent).

[2] = test system: S. cerevisiae EG110 (sod2Δ); assay: Yeast survival assay, EG110 (sod2Δ); assay type: cell-based, Saccharomyces cerevisiae; conditions: positive control H2O2 5 mM, 1 h in PBS
Description: as §1, §2, §3

[3] = test system: S. cerevisiae EG118 (sod1Δ); assay: Yeast survival assay, EG118 (sod1Δ); assay type: cell-based, Saccharomyces cerevisiae; conditions: positive control H2O2 5 mM, 1 h in PBS
Description: as §1, §2, §3

[4] = test system: S. cerevisiae EG103 (SOD-WT); assay: Yeast survival assay, EG103 (SOD-WT); assay type: cell-based, Saccharomyces cerevisiae; conditions: positive control H2O2 5 mM, 1 h in PBS
Description: as §1, §2, §3

[5] = test system: HCT116 cell (colorectal carcinoma); assay: XTT cell viability assay, HCT116; assay type: cell-based, human; conditions: Homo sapiens, HCT-116; HCT116, 24 h treatment, XTT
Description: (§4) The human cell lines MCF-7 (breast adenocarcinoma), HepG2 (hepatoma), T24 (bladder cancer), CACO-2 (colorectal adenocarcinoma) and MRC5 (lung normal fibroblast) were obtained from the Rio de Janeiro Cell Bank (Rio de Janeiro, RJ, Brazil). The HCT116 cell (colorectal carcinoma), and HT29 cell (colorectal adenocarcinoma) were kindly provided by Dr. Annette K. Larsen (Institut National de la Santé et de la Recherche Médicale - INSERM, Paris, França). All cell lines except MCF-7 were grown in DMEM supplemented with 10% or 20% (for CACO-2) FBS, 100 units.mL^-1 penicillin and 100 μg.mL^-1 streptomycin at 37°C in a humidified atmosphere of 5% CO2. MCF-7 cells were maintained in RPMI-1640 supplemented with 20% FBS at the same conditions described above.
(§5) The cytotoxic potential of the TTHL was evaluated by the XTT assay in human tumor cell lines as well as in MRC5 normal fibroblasts. Cells (1 × 10^4 cells) were seeded on 96-well plates in growth medium and incubated overnight. Afterwards, TTHL (0.5, 1.0, 2.5, 5.0, and 10 μg/mL) was added to each well and incubated for 24, 48, 72, and 120 h. Mitoxantrone, a cytostatic anthracenedione that intercalates in DNA and increases the incidence of double-strand breaks by stabilizing the cleavable complex of topoisomerase II and DNA, was used as positive control. At the end of each treatment, cell viability was assessed according to the manufacturer’s instructions. Briefly, after discarding the medium, 1 mL of XTT labeling mixture was added to the cells and incubated for 2 h at 37°C. Absorbance was measured with a SpectraMax reader (Bio-Rad, USA) at a test wavelength of 492 nm (A492) and a reference wavelength of 690 nm (A690). The final result corresponds to A492-A690. The absorbance of negative control cells was set as 100% viability, and the values for treated cells were calculated as a percentage of the control.
(§6) The IC20, IC50, and IC80 values and their 95% confidence intervals (CI 95%) were obtained by nonlinear regression using GraphPad Prism v5 program (Intuitive Software for Science, San Diego, CA, USA). Selective index (SI) was calculated by IC50 in MRC5 cells/IC50 in tumoral cells. All experiments were independently repeated at least three times, with triplicate samples for each treatment. Results are expressed as means ± standard deviation (SD). Data were analyzed by one-way analysis of variance (ANOVA), and means were compared using Tukey test, with P ≤ 0.05 considered as statistically significant.

[6] = test system: HepG2 (hepatoma); assay: XTT cell viability assay, HepG2; assay type: cell-based, human; conditions: Homo sapiens; HepG2, 24 h treatment, XTT
Description: as §4, §5, §6

[7] = test system: HT29 cell (colorectal adenocarcinoma); assay: XTT cell viability assay, HT29; assay type: cell-based, human; conditions: Homo sapiens, HT-29; HT29, 24 h treatment, XTT
Description: as §4, §5, §6

[8] = test system: MRC5 (lung normal fibroblast); assay: XTT cell viability assay, MRC5 normal fibroblasts; assay type: cell-based; conditions: Homo sapiens, MRC5, 24 h treatment
Description: as §4, §5, §6

[9] = test system: MCF-7 (breast adenocarcinoma); assay: XTT cell viability assay, MCF-7; assay type: cell-based, human; conditions: Homo sapiens, MCF7; MCF-7, 24 h treatment, XTT
Description: as §4, §5, §6

[10] = test system: CACO-2 (colorectal adenocarcinoma); assay: XTT cell viability assay, CACO-2; assay type: cell-based, human; conditions: Homo sapiens; CACO-2, 24 h treatment, XTT
Description: as §4, §5, §6

[11] = test system: tumor cell lines; assay: XTT cell viability assay, panel of tumor cell lines; assay type: cell-based; conditions: Homo sapiens, read-out: IC50 values in tumor cell lines (range over the panel)
Description: as §4
The cytotoxic potential of the TTHL was evaluated by the XTT assay in human tumor cell lines as well as in MRC5 normal fibroblasts. Cells (1 × 10^4 cells) were seeded on 96-well plates in growth medium and incubated overnight. […] At the end of each treatment, cell viability was assessed according to the manufacturer’s instructions. […] Absorbance was measured with a SpectraMax reader (Bio-Rad, USA) at a test wavelength of 492 nm (A492) and a reference wavelength of 690 nm (A690). […] The absorbance of negative control cells was set as 100% viability, and the values for treated cells were calculated as a percentage of the control. […]

[12] = test system: T24 (bladder cancer); assay: XTT cell viability assay, T24; assay type: cell-based, human; conditions: Homo sapiens; T24, 24 h treatment, XTT
Description: as §4, §5, §6

SMILES	survival (percentage in relation to negative control) [1]	survival (percentage in relation to negative control) [2]	survival (percentage in relation to negative control) [3]	survival (percentage in relation to negative control) [4]	IC50 [5]	IC50 [6]	IC50 [7]	IC50 [8]	IC50 [9]	IC50 [10]	IC50 [11]	IC50 [12]
OO [H2O2, hydrogen peroxide, reference compound]	19.33 ± 2.10%	19.10 ± 4.03%	16.27 ± 4.88%	63.03 ± 4.12%								
O=C1c2c(O)ccc(O)c2C(=O)c2c(NCCNCCO)ccc(NCCNCCO)c21 [MXT, mitoxantrone, reference compound]					0.61 ± 0.67 µg/mL (≈ 1.37 µM)	3.5 ± 0.39 µg/mL (≈ 7.87 µM)	0.88 ± 2.33 µg/mL (≈ 1.98 µM)	2.88 ± 1.44 µg/mL (≈ 6.48 µM)	0.87 ± 1.59 µg/mL (≈ 1.96 µM)	2.4 ± 1.81 µg/mL (≈ 5.4 µM)	0.61 to 3.5 µg/mL (≈ 1.37 to 7.87 µM)	2.5 ± 0.62 µg/mL (≈ 5.62 µM)
